Converted amounts (≈) assume the structure as drawn. Where a name gives a salt, the structure may show the parent alone. Read-outs that look alike come from different tables or passages of the source.
Columns and labels:
[1] = Rat IV pharmacokinetic study; conditions: D5W, plasma analyte
[2] = Oral range finding toxicity and toxicokinetic study in male Cynomolgus monkeys; type: in vivo, Cynomolgus monkeys (Macaca Fascicularis)
Text: Cynomolgus monkeys (Macaca Fascicularis) were obtained from Primus Bio-Resources Inc. of PinCourt, Quebec, Canada. Cynomolgus monkeys were chosen because they are a non-rodent species that is commonly used for nonclinical toxicity evaluations.
Eight (2 naive and 6 non-naïve) males were used in the study. The animals were young adults and weighed between 2 to 4 kg at the onset of dosing.
The first day of dosing was designated as Day 1 of the study. The actual volume administered to each animal was calculated and adjusted based on the most recent body weight of each animal.
Cage-side clinical signs (ill health, behavioral changes etc.) were recorded at least once daily during the study.
Body weights were recorded for all animals prior to group assignment and on Days 1 (prior to dosing), 3 and 7 as well as terminally prior to necropsy (fasted).
Electrocardiograms (bipolar limb leads I, II and III, and augmented unipolar leads aVR, aVL and aVF) were obtained for all monkeys once during the pre-treatment period and again on Day 7 (post-dosing).
The tracings were assessed for gross changes indicative of cardiac electrical dysfunction. The potential presence of abnormalities involving heart rate (lead II), sinus and atrioventricular rhythm or conductivity were determined. Heart rate, PR interval, QRS duration, QT and QTc intervals values were measured.
A series of 7 blood samples (approximately 0.5 mL each) were collected from each monkey on Days 1 and 7 at the following time points: predose, 30 minutes and 2, 3, 6, 12 and 24 hours post-dose. For this purpose, each monkey was bled by venipuncture and the samples were collected into tubes containing the anticoagulant, K2EDTA. Tubes were placed on wet ice until ready for processing.
Laboratory investigations (hematology, coagulation, clinical chemistry and urinalysis) were performed on all animals prior to start of treatment and prior to termination on Day 8.
A necropsy with tissue collection was conducted on all animals terminated during the study. The necropsy included examination of:
For all animals, all tissues indicated above were embedded in paraffin, sectioned and stained with hematoxylin and eosin and examined by light microscopy.

[3] = Monkey IV pharmacokinetic study; conditions: Compound W IV 5 mg/kg, D5W, plasma analyte
Protocol: Animals had free access to food and water before and after dosing.
Blood samples (approximately 0.25 mL each) were collected via a carotid artery catheter prior to dosing and at 0 (predose), 5 min, 10 min, 0.25, 0.5, 1, 2, 3, 4, 6, 8, 12, 24, 48 hours postdose. Each blood sample was collected into a tube that was kept on wet ice and contained potassium EDTA as the anticoagulant. Plasma was separated and stored at approximately −70° C. until analysis.
Plasma concentration vs. time data were subjected to noncompartmental pharmacokinetic (PK) analysis.

[4] = Rat oral pharmacokinetic study; type: in vivo, Sprague Dawley rats; conditions: 0.5% MC, plasma analyte
Text: (§1) Plasma concentration vs. time data was subjected to noncompartmental pharmacokinetic (PK) analysis.

[5] = Monkey oral pharmacokinetic study; type: in vivo, cynomolgus monkeys; conditions: 0.5% MC, plasma analyte
Text: as §1

[6] = test system: M. tuberculosis ATCC 35801 (strain Erdman); test: Mouse M. tuberculosis (Erdman) 28 day lung infection model; type: in vivo, M. tuberculosis; host Balb/c mice; conditions: 28 days
[7] = test system: Staphylococcus aureus ATCC 29213; test: microbe, parasite or virus in culture; type: cell-based; conditions: Staphylococcus aureus, ATCC29213, Staphylococcus aureus ATCC 29213; Protocol 1; read-out: MIC
[8] = Stability of the solid forms (net increase in total impurities at 40 C/30% RH); type: physicochemical; conditions: 15 days
[9] = Seven-day oral (gavage) toxicity and toxicokinetics study in rats; type: in vivo, Crl:CD(SD) rats; conditions: for Mean food consumption: Compound 13 once daily 100 or 200 mg/kg, Compound 23A twice daily 300 mg/kg, different intervals of the study, not considered adverse; for adverse observations or effects on mean body weight / dose levels without adverse toxicity within the scope of the study / NOEL (No-Observable-Effect-Level) / exposures for different dosage levels: male rats; for adverse observations or effects on mean body weight / dose levels without adverse toxicity within the scope of the study: 7 days oral gavage; for NOEL (No-Observable-Effect-Level): once a day for 7 days orally via gavage; for exposures for different dosage levels: oral gavage, toxicokinetics; for histopathological findings: any dose regimen
Text: Crl:CD(SD) rats were obtained from Charles River Laboratories of Stone Ridge, N.Y. The animals were laboratory bred and experimentally naïve. Rats were chosen because they are a species that is commonly used for nonclinical toxicity evaluations.
Forty rats (20 noncannulated males and 20 males with jugular vein cannulas) were ordered. From these animals, 15 noncannulated males and 15 cannulated males were used. Animals were as uniform in age as possible. The rats were prepubertal to young adult, approximately 9 weeks of age at initiation of dosing. Their supplier-calculated birth date was retained in the study records. The weight range for the animals at the time of allocation to groups was 218.5-306.3 g.
Animals received the test article or vehicle by oral gavage for 7 consecutive days and were terminated the day following completion of dosing. The first day of dosing was designated as Day 1 of the study. The animals were evaluated for changes in clinical signs, body weight, and other parameters as described below.
The vehicle and test article were administered by oral gavage once daily for 7 consecutive days at a dose volume of 10 mL/kg body weight for Group A and Groups B-D, respectively. The test article and vehicle were administered by oral gavage twice daily, approximately 8 hours apart, for 7 consecutive days at a dose volume of 10 mL/kg body weight for Group E and Group F, respectively. The actual volume administered to each animal was calculated and adjusted based on the most recent body weight of each animal.
During the treatment period, daily cageside observations were made and recorded predose and postdose (following the first dose only). The postdosing observations made during treatment occurred at the following times based on Cmax/Tmax for the two compounds from previous studies:
Prior to start of dosing, body weights were measured for randomization on Day 1. During the treatment, body weights were measured on Day 1 and Day 7. In addition, fasted body weights were measured prior to necropsy for calculation of organ/body weight ratios.
Throughout the study, food consumption was measured daily starting 3 days prior to start of dosing.
Blood samples for evaluation of hematology, coagulation, and serum chemistry parameters were collected from all animals from the retro-orbital plexus (under CO2/O2 anesthesia, for the main study animals) or jugular vein cannula (for the toxicokinetic animals) prior to necropsy. Due to residual heparin used to keep the cannulas patent for the toxicokinetic animals, coagulation samples from these rats, were not able to be analyzed. The animals were fasted overnight prior to blood collection. On the day of blood collection for clinical pathology analyses, the animals were not necropsied until after the blood was collected and the samples judged to be acceptable by the clinical pathology group.
On the 1st and 7th day of dosing, blood samples (approximately 0.5 mL/sample) were collected from the jugular vein cannula for all toxicokinetic animals at the timepoints listed below into K3EDTA-containing tubes. […] Prior to each collection, a small sample of blood (with heparin blocking solution) was removed from the cannula and discarded. A new syringe was placed on the cannula, and the protocol-required sample was taken. The syringe with the blood sample was removed, and a new syringe with saline attached to the cannula. Blood volume was replaced with an equal volume of saline and then blocking solution placed in the cannula. Each animal was returned to its cage until the next collection timepoint.
For all animals euthanized at scheduled necropsies, the kidneys, liver, and prostate gland were weighed. Following weighing, an approximate 1 gram sample of liver and kidney was weighed, transferred to Precellys 7 mL CK28 Tissue Homogenizing tubes (Cat. No. 0904-01), snap-frozen, and analyzed. […]

[10] = test system: M. tuberculosis Erdman ATCC 35801; test: Mycobacterium tuberculosis serum shift MIC assay (Protocol 5); type: cell-based
M. tuberculosis H37Rv = conditions: cited from earlier work
[11] = doses up to 200 mg/kg/day, 7 days
[12] = Table 23a, 10 mg/kg BID oral gavage
[13] = Table 23a, 30 mg/kg BID oral gavage
[14] = Table 23a, 100 mg/kg BID oral gavage
[15] = rats, 300 mg/kg twice a day, compared to controls treated twice a day
[16] = M. tuberculosis Erdman ATCC 35801
[17] = M. tuberculosis Erdman ATCC 35801 with Mouse Serum

`CCNC(=O)Nc1nc2cc(-c3cnc(C(C)(C)O)nc3)c(F)c([C@H]3CCCO3)c2[nH]1` [Compound 23, 1-ethyl-3-[6-fluoro-5-[2-(1-hydroxy-1-methyl-ethyl)pyrimidin-5-yl]-7-[(2R)-tetrahydrofuran-2-yl]-1H-benzimidazol-2-yl]urea] showed an AUCextrap ([1]; Compound W IV 1 mg/kg) of 310 ng·h/mL, a Cl_obs ([1]; Compound W IV 1 mg/kg) of 54.9 mL/min/kg and a Vss_obs ([1]; Compound W IV 1 mg/kg) of 3.8 L/kg. For the same molecule, the t1/2 ([1]; Compound W IV 1 mg/kg) was 1.8 h, the AUCextrap ([1]; Compound W IV 5 mg/kg) was 3060 ng·h/mL and the Cl_obs ([1]; Compound W IV 5 mg/kg) was 27.3 mL/min/kg. The Vss_obs ([1]; Compound W IV 5 mg/kg) was 4.08 L/kg, the t1/2 ([1]; Compound W IV 5 mg/kg) was 3.6 h and the “clinical signs, body weights, electrocardiography, clinical pathology, organ weights” value [2, 11] was “no clinical signs, or changes in body weights, electrocardiography parameters, clinical pathology parameters, or organ weights”. The “macroscopic or microscopic findings” value [2, 11] was “no macroscopic or microscopic findings”, the “no observed effect level (NOEL)” value ([2]; male Cynomolgus monkeys, oral gavage once per day for 7 days) was 200 mg/kg/day and the “exposures for different dosage levels” value ([2]; male Cynomolgus monkeys, oral gavage, toxicokinetics) was “dose related”. The AUCextrap [3] was 3810 ng·h/mL, the AUCextrap ([4]; Compound W oral 3 mg/kg) was 314 ng·h/mL and the AUCextrap ([4]; Compound W oral 30 mg/kg) was 22600 ng·h/mL. It also gave an AUCextrap ([4]; Compound W oral 100 mg/kg) of 77400 ng·h/mL, an AUCextrap ([5]; Compound W PO 30 mg/kg) of 24800 ng·h/mL and an AUCextrap ([5]; Compound W PO 100 mg/kg) of 76900 ng·h/mL. The AUCextrap ([5]; Compound W PO 300 mg/kg) was 155000 ng·h/mL.
For `COc1c(N2C[C@@H]3CCCN[C@@H]3C2)c(F)cc2c(=O)c(C(=O)O)cn(C3CC3)c12` [Moxifloxacin, reference compound], the “Average Lung Burden” value ([6]; Table 23a, 100 mg/kg QD) was 2.94 Log cfu/lungs, the “Log Reduction vs. Early Control” value ([6]; Table 23a, 100 mg/kg QD) was 2.04 Log and the “Log Reduction vs. Late Control” value ([6]; Table 23a, 100 mg/kg QD) was 2.26 Log. The “Log Reduction vs. Early Control” value ([6]; Table 23b, 100 mg/kg QD) was 2.04 Log, the “Log Reduction vs. Late Control” value ([6]; Table 23b, 100 mg/kg QD) was 1.42 Log and the “Median Lung Burden” value ([6]; Table 23b, 100 mg/kg QD) was 2.94 Log cfu/lungs.
For `CCNC(=O)Nc1nc2cc(-c3cnc(C(C)(C)OP(=O)([O-])[O-])nc3)c(F)c([C@H]3CCCO3)c2[nH]1.[Na+].[Na+]` [Amorphous di-Na salt, disodium (R)-2-(5-(2-(3-ethylureido)-6-fluoro-7-(tetrahydrofuran-2-yl)-1H-benzo[d]imidazol-5-yl)pyrimidin-2-yl)propan-2-yl phosphate], the MIC [7] was 4 µg/mL and the “Net % increase in total impurities” value [8] was 1.74%.
For `CCNC(=O)Nc1nc2cc(-c3cnc(C(C)(C)O)nc3)c(F)c([C@H]3CCCO3)c2[nH]1` [Compound 23A, methanesulfonic acid salt of 1-ethyl-3-[6-fluoro-5-[2-(1-hydroxy-1-methyl-ethyl)pyrimidin-5-yl]-7-[(2R)-tetrahydrofuran-2-yl]-1H-benzimidazol-2-yl]urea], the “Average Lung Burden” value [6, 12] was 5.08 Log cfu/lungs, the “Log Reduction vs. Early Control” value [6, 12] was −0.10 Log and the “Log Reduction vs. Late Control” value [6, 12] was 0.13 Log. For the same molecule, the “Average Lung Burden” value [6, 13] was 4.11 Log cfu/lungs, the “Log Reduction vs. Early Control” value [6, 13] was 0.86 Log and the “Log Reduction vs. Late Control” value [6, 13] was 1.09 Log. For the same molecule, the “Average Lung Burden” value [6, 14] was 3.22 Log cfu/lungs, the “Log Reduction vs. Early Control” value [6, 14] was 1.76 Log and the “Log Reduction vs. Late Control” value [6, 14] was 1.98 Log. The “reduction of bacterial burdens versus the early control” value ([6]; doses of 30 and 100 mg/kg) was 0.7-1.5 logs, the Mean food consumption [9] was “reduced” and the “adverse observations or effects on mean body weight” value [9] was “No adverse observations or effects on mean body weight”. For the same molecule, the “dose levels without adverse toxicity within the scope of the study” value [9] was no more than 600 mg/kg/day, the “NOEL (No-Observable-Effect-Level)” value [9] was 100 mg/kg and the “exposures for different dosage levels” value [9] was “dose related”. The AST [9, 15] was “statistically higher”, the “mean ALT” value [9, 15] was “statistically higher” and the “mean calcium ion concentration (CA)” value [9, 15] was “statistically lower”. The histopathological findings ([9]; rats) was “No test article-related histopathological findings”, the MIC [10, 16] was 0.03 µg/mL and the MIC [10, 17] was 0.5 µg/mL.
For `NC(=O)c1cnccn1` [Pyrazinamide], the MIC (M. tuberculosis H37Rv; normal pH) is given as 250 µg/mL (≈ 2030 µM) and the MIC (M. tuberculosis H37Rv; pH 6.0) is given as 50 µg/mL (≈ 406 µM).
In the case of `CCNC(=O)Nc1nc2cc(-c3cnc(C(C)(C)O)nc3)cc([C@H]3CCCO3)c2[nH]1` [Compound 13, 1-ethyl-3-[5-[2-(1-hydroxy-1-methyl-ethyl)pyrimidin-5-yl]-7-[(2R)-tetrahydrofuran-2-yl]-1H-benzimidazol-2-yl]urea], the Mean food consumption [9] is reported as “reduced”, the “adverse observations or effects on mean body weight” value [9] is reported as “No adverse observations or effects on mean body weight” and the “dose levels without adverse toxicity within the scope of the study” value [9] is reported as “up to 200 mg/kg/day”. The “NOEL (No-Observable-Effect-Level)” value [9] was 200 mg/kg, the “exposures for different dosage levels” value [9] was “dose related” and the histopathological findings ([9]; rats) was “No test article-related histopathological findings”. The MIC [10, 16] was 0.045 µg/mL and the MIC [10, 17] was 2 µg/mL.
